Results: patent publication US8148427B2, “Benzylamine derivative or pharmaceutically acceptable acid addition salt thereof, and use thereof for medical purposes” (Toray Industries, Inc., priority 2007, dated 2012)
pEC50: −log10 of the molar value. Like-named read-outs stand apart in the source and are kept apart here. Marks after values point to notes of the source that are not given here.

Experiments:
[1] = target: T1, human adrenergic β3 receptor (Homo sapiens, UniProt P13945); assay: Agonistic activity (cAMP production) against human adrenergic β3 receptor in SK-N-MC cells; type: cell-based; details: for EC50: SK-N-MC cells, cAMP, with CGP-20712A 1 μM, 100 or 300 nM Isoproterenol = 100%, tested up to 10 μM, read-out: β3 (logarithm of the 50% reaction concentration) (converted)
T1 construct: evaluated using SK-N-MC cells in the presence of a selective adrenergic β1 receptor antagonist; endogenous in cells; host or cells: SK-N-MC cells
Procedure: (§1) This method was carried out according to the literature [J. Pharmacol. Exp. Ther., 271, 1253 (1994)] or [Naunyn-Schmiedeberg's Arch. Pharmacol., 369, 151 (2004)], using the amount of the production of cAMP as an index. The agonistic activity against human adrenergic β3 receptor was evaluated using SK-N-MC cells in the presence of a selective adrenergic β1 receptor antagonist (CGP-20712A, 1 μM). Evaluation of the agonistic activities against human adrenergic β2 and β1 receptors was carried out using CHO-K1 cells forcibly-expressed each receptor. Their cells were cultured in a culture flask. In assay day, they were detached and collected with EDTA, followed by dispensing in a 384-well plate so as to attain 10,000 cells/well. The test compound of each concentration was added to each well and allowed to react in a CO2 incubator at 37° C. for 30 minutes, followed by quantification of the produced cAMP using cAMP detection kit (Perkinelmer). The logarithm of the 50% reaction concentration of each test compound was calculated taking the reaction by 100 or 300 nM Isoproterenol as 100%. The test drug was added up to 10 μM, and in cases where reaction of not less than 50% was not observed at this concentration, the result was represented as n.d. (not detected).

female Spague-Dawley rat [2] = assay: Effect on cardiovascular system in conscious rats; type: in vivo; details: 30 minutes, relative to before administration
Procedure: (§2) This method was carried out in accordance with the literature [Experimental Methods in Pharmacology, 5th Revised Edition, p. 168, KYODO ISHO SHUPPAN CO., LTD.]
Each female Spague-Dawley rat was anesthetized with ether, and a polyethylene cannula was inserted into the left common carotid artery and fixed therein, followed by subcutaneously indwelling a cannula for drug administration. After recovery from anesthesia, the mean blood pressure and the heart rate were measured under free moving conditions.

female Spague-Dawley rat [3] = assay: Number of voiding episodes in rat natural voiding behavior test; type: in vivo; details: 1 hour after administration
Procedure: This method was carried out according to the literature [Jpn. J. Pharmacol., 87, 27 (2001)]. Each female Spague-Dawley rat was placed in a urine collection cage, and an electronic balance was placed under the cage. Excreted urine was allowed to fall into a urine collection tray placed on the electronic balance, and its change in weight every 10 seconds was scaled with time through a personal computer. Not less than 0.1 g of the change in weight was regarded as indicative of urination, and the weight of 1 g was regarded as corresponding to 1 mL of urine. Drug administration was carried out subcutaneously, and the number of voiding episodes was measured for 1 hour before and after the drug administration, to observe its change (number of cases: 11 to 18/group).
Significant difference test was carried out by student's-test or williams test, wherein a significance level of less than 5% was accepted as significant (* in the table).

female Spague-Dawley rat [4] = assay: Effect on cardiovascular system in anesthetized rats; type: in vivo; details: cumulative, 30 minutes, relative to before administration
Procedure: as §2
Each female Spague-Dawley rat was anesthetized with urethane, and a polyethylene cannula was inserted into the left common carotid artery and fixed therein, to measure the mean blood pressure and the heart rate. […] Data were represented as amounts of the changes (blood pressure: mmHg, heart rate: %) relative to values before the administration (number of cases: 3 to 8/group).

[5] = system: isolated bladder smooth muscle; assay: Relaxing activity against isolated bladder smooth muscle in human; details: relaxation by 10 μM forskolin = 100%
Procedure: This method was carried out in accordance with the literature [J. Urology, 165, 240 (2001)].
A normal part (non-cancerous part) of the bladder removed from a human male (32-72 years old) by bladder cancer surgery was used. A bladder section sizing about 3×10 mm was prepared in the nutrient solution (Krebs solution [NaCl 118 mM; KCl 4.7 mM; NaH2PO4 1.2 mM; glucose 10 mM; NaHCO3 25 mM; MgCl2.7H2O 1.2 mM; CaCl2.2H2O 2.5 mM]) sufficiently oxygenated with 95% O2+5% CO2. The sample was suspended in a Magnus tube filled with the nutrient solution (Krebs solution) aerated with 95% O2+5% CO2 at 37° C., and stabilized under a load of 0.5 g for 60 minutes or longer. The resting tension of the bladder sample was recorded in a pen recorder through a tension transducer. The test compound was cumulatively applied about every 10 minutes. The test compound was dissolved in distilled water or aqueous 10% DMSO solution (number of cases: 3 to 4/group).

[6] = system: isolated bladder smooth muscle; assay: Relaxing activity test against isolated bladder smooth muscle in rat; details: resting tension of isolated rat bladder; relaxation by 10 μM forskolin = 100%
Procedure: This method was carried out in accordance with the literature [J. Pharmacol. Exp. Ther., 293, 939 (2000)]. Each bladder was isolated from a normal Spague-Dawley rat, and a bladder section of the size of about 2×10 mm was prepared in the nutrient solution (Krebs solution [NaCl 118 mM; KCl 4.7 mM; NaH2PO4 1.1 mM; glucose 10 mM; NaHCO3 25 mM; MgCl2.7H2O 1 mM; CaCl2.2H2O 2.5 mM]) sufficiently oxygenated with 95% O2+5% CO2. The sample was suspended in a Magnus tube filled with the nutrient solution (Krebs solution) aerated with 95% O2+5% CO2 at 37° C., and stabilized under a load of 0.5 g for 60 minutes or longer. The resting tension of the bladder sample was recorded in a pen recorder through a tension transducer. The test compound was cumulatively applied about every 10 minutes. […] The test compound was dissolved in distilled water or aqueous 10% dimethylsulfoxide solution.

[7] = target: T2, human adrenergic β2 receptor (Homo sapiens, UniProt P07550); assay: Agonistic activity (cAMP production) against human adrenergic β2 receptor in CHO-K1 cells; type: cell-based
T2 construct: expressed in transfected cells; host or cells: CHO-K1 cells
Procedure: as §1

female Spague-Dawley rat [8] = assay: Number of voiding episodes in rat natural voiding behavior test; type: in vivo; details: 3 hours after the administration

T1 sequence (P13945 whole entry): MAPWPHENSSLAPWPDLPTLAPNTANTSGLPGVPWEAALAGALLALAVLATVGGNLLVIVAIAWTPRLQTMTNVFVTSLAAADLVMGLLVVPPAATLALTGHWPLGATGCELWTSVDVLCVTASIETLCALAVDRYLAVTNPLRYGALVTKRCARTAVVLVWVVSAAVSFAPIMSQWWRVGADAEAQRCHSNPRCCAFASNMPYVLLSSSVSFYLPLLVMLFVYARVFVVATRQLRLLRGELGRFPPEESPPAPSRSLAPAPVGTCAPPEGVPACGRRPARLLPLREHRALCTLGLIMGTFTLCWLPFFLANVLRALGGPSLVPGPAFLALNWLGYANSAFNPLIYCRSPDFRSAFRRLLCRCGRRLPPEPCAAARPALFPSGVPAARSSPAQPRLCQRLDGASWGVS
T2 sequence (P07550 whole entry): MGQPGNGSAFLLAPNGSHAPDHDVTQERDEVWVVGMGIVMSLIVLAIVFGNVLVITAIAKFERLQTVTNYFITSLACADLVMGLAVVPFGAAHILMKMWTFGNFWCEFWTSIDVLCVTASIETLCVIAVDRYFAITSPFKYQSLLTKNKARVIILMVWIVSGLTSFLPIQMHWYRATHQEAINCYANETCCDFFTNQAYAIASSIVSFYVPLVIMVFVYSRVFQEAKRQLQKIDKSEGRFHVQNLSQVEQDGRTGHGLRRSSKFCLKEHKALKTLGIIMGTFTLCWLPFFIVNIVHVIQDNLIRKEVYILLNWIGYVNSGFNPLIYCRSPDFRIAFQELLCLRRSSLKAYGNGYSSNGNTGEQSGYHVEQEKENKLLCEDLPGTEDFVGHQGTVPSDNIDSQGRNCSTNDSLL

SMILES | EC50 [1] [nM] | Change in Blood Pressure (female Spague-Dawley rat [4]; 3 mg/kg subcutaneously) [mmHg] | pEC50 [5] | pEC50 [6] | pEC50 [1] | Number of Voiding Episodes (female Spague-Dawley rat [3]; 3 mg/kg subcutaneously) | other results
COc1cc(CN[C@@H](C)[C@H](O)c2ccc(O)c(NS(C)(=O)=O)c2)cc(OC)c1 [Example 1, N-(5-((1R,2S)-2-(3,5-Dimethoxybenzylamino)-1-hydroxypropyl)-2-hydroxyphenyl)methane-sulfonamide] | 39.8 | −25.0 ± 3.6 | 6.25 | 6.64 |  |  | Change in Blood Pressure (female Spague-Dawley rat [2]; 0.3 mg/kg subcutaneously): −6.5 ± 5.5 mmHg; Change in Heart Rate (female Spague-Dawley rat [2]; 0.3 mg/kg subcutaneously): 107.7 ± 3.5%; Number of Voiding Episodes (female Spague-Dawley rat [3]; 0.1 mg/kg subcutaneously): 1.06 ± 0.17; Number of Voiding Episodes (female Spague-Dawley rat [3]; 0.3 mg/kg subcutaneously): 0.83 ± 0.12*; Number of Voiding Episodes (female Spague-Dawley rat [3]; 1 mg/kg subcutaneously): 0.94 ± 0.17*; Change in Blood Pressure (female Spague-Dawley rat [4]; 0.3 mg/kg subcutaneously): −25.2 ± 4.7 mmHg; Change in Heart Rate (female Spague-Dawley rat [4]; 0.3 mg/kg subcutaneously): 121.7 ± 4.2%; Change in Blood Pressure (female Spague-Dawley rat [4]; 1 mg/kg subcutaneously): −25.4 ± 2.3 mmHg; Change in Heart Rate (female Spague-Dawley rat [4]; 1 mg/kg subcutaneously): 126.4 ± 5.1%; Change in Heart Rate (female Spague-Dawley rat [4]; 3 mg/kg subcutaneously): 135.2 ± 8.4%; EC50 ([7]; CHO-K1 cells, cAMP, 100 or 300 nM Isoproterenol = 100%, tested up to 10 μM, n.d. = not detected at 10 μM, read-out: β2 (logarithm of the 50% reaction concentration) (converted)): 2340 nM
Cc1cc(C)cc(CN[C@@H](C)[C@H](O)c2ccc(O)c(NS(C)(=O)=O)c2)c1 [Example 5, N-(5-((1R,2S)-2-(3,5-Dimethylbenzylamino)-1-hydroxypropyl)-2-hydroxyphenyl)methane-sulfonamide] |  |  | 6.24 | 6.82 | 7.14 | 0.50 ± 0.15* | 
C[C@H](NCc1cc(Cl)cc(Cl)c1)[C@H](O)c1ccc(O)c(NS(C)(=O)=O)c1 [Example 3, N-(5-((1R,2S)-2-(3,5-Dichlorobenzylamino)-1-hydroxypropyl)-2-hydroxyphenyl)methane-sulfonamide] |  |  |  | 7.05 | 7.66 | 0.50 ± 0.15* | pEC50 [7]: 5.97
Nc1nc(CC(=O)Nc2ccc(CCNC[C@H](O)c3ccccc3)cc2)cs1 [Compound 11, reference compound] |  | −17.1 ± 3.5 |  |  |  | 0.67 ± 0.19 | Change in Blood Pressure (female Spague-Dawley rat [2]; 3 mg/kg subcutaneously): −22.5 ± 5.6 mmHg; Number of Voiding Episodes (female Spague-Dawley rat [3]; 3 mg/kg subcutaneously, listed as compound 11): did not show a significant effect; effect of decreasing the frequency of voiding episodes (female Spague-Dawley rat [8]): significant effect; Change in Heart Rate (female Spague-Dawley rat [4]; 3 mg/kg subcutaneously, 3 mg/kg): 133.5 ± 8.2 %
COc1cc(CN[C@@H](C)[C@H](O)c2ccc(O)c(NS(C)(=O)=O)c2)cc(OC)c1OC [Example 4, N-(2-Hydroxy-5-((1R,2S)-1-hydroxy-2-(3,4,5-trimethoxybenzylamino)propyl)phenyl)methane-sulfonamide] | 33.1 |  | 6.15 | 7.13 |  | 0.33 ± 0.19* | 
C[C@H](NCc1cc(C(F)(F)F)cc(C(F)(F)F)c1)[C@H](O)c1ccc(O)c(NS(C)(=O)=O)c1 [Example 2, N-(5-((1R,2S)-2-(3,5-Bis(trifluoromethyl)benzylamino)-1-hydroxypropyl)-2-hydroxyphenyl)methanesulfonamide] | 31.6 |  |  | 7.44 |  | 0.45 ± 0.21* | 
